Test results from the Deep4Chem optical property database.

Assay: solvent given as SMILES

Compound: C[Si]1(C)O[Si](C)(C)c2cc3c(-c4ccccc4F)c4cc(Cl)ccc4nc3cc21
- emission maximum (in ClCCl): 498 nm

Compound: Clc1ccc(/C=C/c2nc3ccccc3o2)cc1
- emission maximum (in C1CCCCC1): 380 nm
- emission maximum (in CO): 385 nm

Compound: c1ccc2c(-c3c4ccccc4c(-c4ccc(-n5c6ccccc6c6ccccc65)cc4)c4ccccc34)cccc2c1
- emission maximum (in ClCCl): 421 nm

Compound: CC(C)[Si](C#Cc1c2cc3ccccc3cc2c(C#C[Si](C(C)C)(C(C)C)C(C)C)c2nc3ccccc3nc12)(C(C)C)C(C)C
- emission maximum (in CCCCCC): 699 nm
- emission maximum (in ClCCl): 738 nm

Compound: c1cc2cccc3c4cccc5cccc(c(c1)c23)c54
- emission maximum (in C1CCCCC1): 438.4 nm
- emission maximum (in ClC(Cl)Cl): 443 nm
- emission maximum (in ClCCl): 448 nm

Compound: CCN(CC)c1ccc(/N=N/c2nc3ccc(Br)cc3s2)cc1
- emission maximum (in CC#N): 580 nm
- emission maximum (in ClCCl): 578 nm

Compound: Cc1ccc2nc3cc4c(cc3c(-c3ccccc3)c2c1)[Si](C)(C)O[Si](C)(C)O[Si]4(C)C
- emission maximum (in ClCCl): 502 nm

Compound: CC(C)(C)c1ccc2oc3nc4oc5ccc(N6c7ccccc7Sc7ccccc76)cc5c4cc3c2c1
- emission maximum (in ClC(Cl)Cl): 371 nm

Compound: O=S1(=O)c2ccccc2C2(c3cc(-c4ccc(-n5c6ccccc6c6ccccc65)cc4)ccc3-c3ccc(-c4ccc(-n5c6ccccc6c6ccccc65)cc4)cc32)c2ccccc21
- emission maximum (in ClCCl): 427 nm
- emission maximum (in c1cc(-n2c3ccccc3c3ccccc32)cc(-n2c3ccccc3c3ccccc32)c1): 412 nm

Compound: CCCCCCN1C(=O)c2cccc3c(-c4ccc(-c5cc(-c6ccc(OC)cc6)n(-c6ccccc6)n5)s4)ccc(c23)C1=O
- emission maximum (in ClCCl): 521 nm

Compound: COc1ccc(-c2csc(/C(C#N)=C\Nc3ccc(C#N)cc3)n2)cc1
- emission maximum (in CC#N): 451 nm
- emission maximum (in CCO): 444 nm
- emission maximum (in CN(C)C=O): 453 nm
- emission maximum (in Cc1ccccc1): 441 nm
- emission maximum (in ClCCl): 447 nm

Compound: O=Cc1ccc(C2=Cc3ccccc3P2(=O)c2ccccc2)cc1 (configuration not stated)
- emission maximum (in ClCCl): 427 nm

Compound: C(=C\c1nc2c(c(N3CCOCC3)n1)CCCC2)/c1ccccc1
- emission maximum (in ClCCl): 333 nm

Compound: COc1ccc(N(c2ccc(OC)cc2)c2ccc(-c3ccc(-c4ccc(-c5ccc(-c6ccc(N(c7ccc(OC)cc7)c7ccc(OC)cc7)cc6)s5)c5nsnc45)s3)cc2)cc1
- emission maximum (in ClC(Cl)Cl): 710 nm

Compound: COc1ccc(C2=Cc3ccccc3[Si]2(c2ccccc2)c2ccccc2)cc1
- emission maximum (in ClCCl): 418 nm

Compound: CN(C)c1ccc(/C=C/C=C/C2=NC3C(=O)NC(N)=NC3N2[C@H]2C[C@H](O)[C@@H](CO)O2)cc1 (some centres not stated)
- emission maximum (in C1COCCO1): 429 nm
- emission maximum (in CC#N): 443 nm
- emission maximum (in CO): 438 nm

Compound: CC(C)(C)c1ccc2c(c1)c1cc(C(C)(C)C)cc3c1n2-c1cc(-c2cccc(F)c2)cc2c1B3c1cc(C(C)(C)C)cc3c4cc(C(C)(C)C)ccc4n-2c13
- emission maximum (in Cc1ccccc1): 493.65 nm

Compound: Nc1ccc2ccc3cccc4ccc1c2c34
- emission maximum (in CC#N): 425 nm
- emission maximum (in CCCCOCCCC): 417 nm
- emission maximum (in CO): 428 nm

Compound: CNc1cc2nc3cc(F)c(F)cc3nc2cc1NC
- emission maximum (in CCO): 529 nm

Compound: Cc1nc2cccc(-c3nc4ccc([N+](=O)[O-])cc4[nH]3)c2c(=O)[nH]1
- emission maximum (in CN(C)C=O): 450 nm

Compound: c1ccc2c(c1)ccc1oc3ccc4cc5oc6ccc7ccc8oc9ccc%10ccccc%10c9c8c7c6c5cc4c3c12
- emission maximum (in CC#N): 432 nm

Compound: CC(=O)Nc1ccc(C2=C/C(=C\c3ccc(C#N)cc3)C(=O)O2)cc1
- emission maximum (in C1COCCO1): 521 nm

Compound: c1cc2ccc3ccc(-c4ccc(-c5nnc(-c6ccc(-c7nnc(-c8ccc(-c9ccc%10ccc%11cccc%12ccc9c%10c%11%12)s8)o7)cc6)o5)s4)c4ccc(c1)c2c34
- emission maximum (in C1COCCO1): 373 nm
- emission maximum (in CC#N): 398 nm
- emission maximum (in CC(=O)N(C)C): 373 nm
- emission maximum (in CCCCCCCCCCO): 418 nm
- emission maximum (in CCCCCCCCO): 393 nm
- emission maximum (in CCCCCCO): 394 nm
- emission maximum (in CCCCO): 393 nm
- emission maximum (in CCO): 393 nm
- emission maximum (in CS(C)=O): 374 nm
- emission maximum (in Cc1ccccc1): 419 nm
- emission maximum (in ClC(Cl)Cl): 373 nm

Compound: COc1ccc(C2=C(c3ccc(OC)cc3)C(C)(C)c3cc(OC)ccc32)cc1
- emission maximum (in C1CCCCC1): 398 nm

Compound: CCCC1(CCC)c2cc(-c3ccc(C(C)(C)C)cc3)ccc2-c2ccc(-c3ccc4c(c3)C(CCC)(CCC)c3cc(-c5ccc6c(c5)C(CCC)(CCC)c5cc(-c7ccc8c(c7)C(CCC)(CCC)c7cc(-c9ccc(C(C)(C)C)cc9)ccc7-8)ccc5-6)ccc3-4)cc21
- emission maximum (in C1CCCCC1): 413 nm

Compound: CCC1=C(C)C2=Cc3c4ccccc4c4n3[B-](c3ccncc3)(Oc3ccccc3-4)[N+]2=C1C=Cc1ccc(OC)cc1 (configuration not stated)
- emission maximum (in CC#N): 712 nm
- emission maximum (in CCCCCC): 711 nm
- emission maximum (in Cc1ccccc1): 720 nm
- emission maximum (in ClCCl): 717 nm

Compound: COc1ccc(C2=C(c3ccc(OC)cc3)C(C)(C)c3ccccc32)cc1
- emission maximum (in C1CCCCC1): 391 nm

Compound: [NH3+]C(Cc1c[nH]c2ccccc12)C(=O)[O-] (configuration not stated)
- emission maximum (in O): 350 nm

Compound: COc1cc(/C=C/c2nc3ccccc3o2)c(OC)cc1/C=C/c1nc(C)nc(/C=C/c2cc(OC)c(/C=C/c3nc4ccccc4o3)cc2OC)n1
- emission maximum (in C1CCOC1): 487 nm
- emission maximum (in CC#N): 502 nm
- emission maximum (in ClC(Cl)Cl): 494 nm
- emission maximum (in ClCCl): 496 nm

Compound: COc1ccc(-c2cc3c(ccc4sc5ccc6sc(-c7ccc(C(C)=O)cc7)cc6c5c43)s2)cc1
- emission maximum (in ClCCl): 477 nm

Compound: c1ccc(-c2nnc(-c3cc(-n4c5ccccc5c5ccccc54)c(-n4c5ccccc5c5ccccc54)cc3-c3nnc(-c4ccccc4)o3)o2)cc1
- emission maximum (in CC#N): 525.15 nm
- emission maximum (in Cc1ccccc1): 466 nm
- emission maximum (in ClCCl): 500.52 nm

Compound: CCC12C(=C3C(=C4c5ccc(-c6ccc(CO)cc6)cc5S(=O)(=O)C41CC)C(F)(F)C(F)(F)C3(F)F)c1ccc(-c3ccc(CO)cc3)cc1S2(=O)=O (configuration not stated)
- emission maximum (in C1COCCO1): 538.57 nm

Compound: CC1=CC(C)=[N+]2C1=Cc1c3ccccc3c(C#Cc3ccc(F)cc3)n1[B-]2(F)F
- emission maximum (in CCCCCC): 615 nm
- emission maximum (in CCCCCCCCO): 623 nm
- emission maximum (in CCOC(C)=O): 617 nm
- emission maximum (in CN(C)C=O): 624 nm

Compound: COc1cc(OC)c2c(c1)C(=O)c1cc(OC)cc(OC)c1-2
- emission maximum (in C1CCCCC1): 585 nm

Compound: c1ccc2nc(-n3c4ccccc4c4ccccc43)c(-n3c4ccccc4c4ccccc43)nc2c1
- emission maximum (in C1CCOC1): 516.79 nm
- emission maximum (in CCCCCC): 467.18 nm
- emission maximum (in Cc1ccccc1): 503 nm

Compound: Nc1cccc2cc3ccccc3cc12
- emission maximum (in C1CCCCC1): 487.09 nm

Compound: CCC1(CC)c2ccccc2-c2ccc(C#Cc3ccc4ccc5cccc6ccc3c4c56)cc21
- emission maximum (in C1CCCCC1): 407 nm
- emission maximum (in C1CCOC1): 410 nm
- emission maximum (in CC#N): 408 nm
- emission maximum (in CCOC(C)=O): 406 nm
- emission maximum (in CN(C)C=O): 412 nm
- emission maximum (in Cc1ccccc1): 412 nm
- emission maximum (in ClC(Cl)Cl): 413 nm
- emission maximum (in ClCCl): 412 nm

Compound: CC1CC=C(c2ccc(-c3ccc(C=O)s3)s2)CC1 (configuration not stated)
- emission maximum (in C1CCOC1): 467 nm
- emission maximum (in CC#N): 482 nm
- emission maximum (in CCCCCC): 445 nm
- emission maximum (in CCO): 500 nm
- emission maximum (in OCCOCCO): 508 nm
- emission maximum (in c1ccncc1): 483 nm

Compound: COc1ccc(/C=C/c2cc(/C=C/c3ccc(OC)cc3)nc(/C=C/c3ccc4cc(OC)ccc4c3)n2)cc1
- emission maximum (in C1CCOC1): 433 nm
- emission maximum (in CC#N): 463 nm
- emission maximum (in CC(C)=O): 445 nm
- emission maximum (in CCCCCCC): 401 nm
- emission maximum (in CS(C)=O): 471 nm
- emission maximum (in Cc1ccccc1): 411 nm
- emission maximum (in ClCCl): 443 nm

Compound: CN(C)c1cc2c(cc1F)c(=O)c1cc(F)c(N)cc1n2C
- emission maximum (in CCO): 432 nm

Compound: C=CCOc1nnc(OCCC(F)(F)C(F)(F)C(F)(F)C(F)(F)C(F)(F)C(F)(F)F)nn1
- emission maximum (in ClCCl): 573 nm
- emission maximum (in OCC(F)(F)F): 562 nm

Compound: CCCC1(CCC)c2cc(-c3ccc4c(c3)C(CCC)(CCC)c3cc(C(C)(C)CC)ccc3-4)ccc2-c2ccc(-c3ccc4c(c3)C(CCC)(CCC)c3cc(C(C)(C)CC)ccc3-4)cc21
- emission maximum (in C1CCCCC1): 400 nm

Compound: C1=C(c2ccccc2)C=C(c2ccccc2)/C1=C/C1CCCCC1
- emission maximum (in C1CCOC1): 420 nm

Compound: CCCCCCCCCCOc1cc(OCCCCCCCCCC)cc(C2=C3C(C)=CC(/C=C/c4ccc(OC)cc4)=[N+]3[B-](F)(F)n3c(/C=C/c4ccc(OC)cc4)cc(C=Cc4ccc(OC)cc4)c32)c1
- emission maximum (in ClC(Cl)Cl): 682 nm

Compound: CC(C)(C)c1ccc(-c2nc3c4ccc(-c5cccc6ccccc56)cc4c4cc(-c5cccc6ccccc56)ccc4c3n2-c2ccc(C(C)(C)C)cc2)cc1
- emission maximum (in C1CCOC1): 386 nm
- emission maximum (in C1COCCO1): 385 nm
- emission maximum (in CC#N): 391 nm
- emission maximum (in CCCCCC): 381 nm
- emission maximum (in CCCCOCCCC): 383 nm
- emission maximum (in CCN(CC)CC): 382 nm
- emission maximum (in CCOC(C)=O): 385 nm
- emission maximum (in CCOCC): 382 nm
- emission maximum (in CN(C)C=O): 394 nm
- emission maximum (in Cc1ccccc1): 385 nm
- emission maximum (in ClC=C(Cl)Cl): 386 nm
- emission maximum (in ClCCl): 388 nm

Compound: N#Cc1cc(C#N)c(-n2c3ccccc3c3c(-c4cccc5c4c4ccccc4n5-c4cc(-n5c6ccccc6c6ccccc65)c(C#N)cc4C#N)cccc32)cc1-n1c2ccccc2c2ccccc21
- emission maximum (in O=P(c1ccccc1)(c1ccccc1)c1ccccc1Oc1ccccc1P(=O)(c1ccccc1)c1ccccc1): 444 nm

Compound: COc1ccc(/C=C/c2ccccc2)cc1OC
- emission maximum (in C1CCCCC1): 372 nm
- emission maximum (in CC#N): 385 nm
- emission maximum (in CC(C)O): 374 nm
- emission maximum (in CCCCOCCCC): 375 nm
- emission maximum (in CCOC(C)=O): 382 nm
- emission maximum (in CCOCC): 373 nm

Compound: CCn1c2ccc(/C=C/c3ccc4c(c3)c3cc(-c5nc6ccccc6s5)ccc3n4CC)cc2c2cc(-c3nc4ccccc4s3)ccc21
- emission maximum (in C1CCOC1): 408 nm
- emission maximum (in CC#N): 491 nm
- emission maximum (in CCOC(C)=O): 412 nm
- emission maximum (in CN(C)C=O): 449 nm
- emission maximum (in ClCCl): 442 nm

Compound: C[Si](C)(C)c1cccc2ccccc12
- emission maximum (in C1CCCCC1): 328 nm

Compound: CC1=CC(C)=[N+]2C1=C(c1ccc(I)cc1)c1c(C)cc(C)n1[B-]2(F)F
- emission maximum (in ClC(Cl)Cl): 517.73 nm

Compound: CC1=N/C(=C\c2cc(C#N)cc(N(C)C)c2)C(=O)N1C
- emission maximum (in C1CCOC1): 544 nm
- emission maximum (in CC#N): 595 nm
- emission maximum (in CCCCCC): 475 nm

Compound: CN(C)c1ccc2cc3ccc(=[N+](C)C)cc-3oc2c1
- emission maximum (in CCO): 568 nm
- emission maximum (in O): 565 nm

Compound: COc1ccc(C2=C(C)C3=C(c4c(-c5ccccn5)nc5ccccn45)c4c(C)cc(C)n4[B-](F)(F)[N+]3=C2C)cc1
- emission maximum (in ClCCl): 592 nm
